Source: ChEMBL document CHEMBL1141370, “Biologically active triterpenoid saponins from Ardisia japonica” (J Nat Prod, 2007)
pIC50: −log10 of the molar value.

What was measured:
Assay type in all cases: cell-based
A549 = assay: Cytotoxicity against human A549 cell line by MTT assay
[1] = Cytotoxicity against human KATO3 cell line by MTT assay
HL-60 = assay: Cytotoxicity against human HL60 cell line by MTT assay

Compound | pIC50 (A549) | pIC50 [1] | pIC50 (HL-60)
CC1(C)[C@@H](O[C@@H]2OC[C@H](O[C@@H]3O[C@H](CO)[C@@H](O)[C@H](O[C@@H]4O[C@H](CO)[C@@H](O)[C@H](O)[C@H]4O)[C@H]3O[C@@H]3OC[C@@H](O)[C@H](O)[C@H]3O)[C@H](O)[C@H]2O[C@@H]2O[C@H](CO)[C@@H](O)[C@H](O)[C@H]2O)CC[C@]2(C)[C@H]3CC[C@]45OC[C@@]6(CC[C@](C)(CO)C[C@H]64)[C@H](O)C[C@@]5(C)[C@]3(C)CC[C@@H]12 [ARDISIANOSIDE F] | 4.44 | 4.42 | < 4.00
C[C@@H]1O[C@@H](O[C@H]2[C@H](O[C@H]3CO[C@@H](O[C@H]4CC[C@]5(C)[C@H]6CC[C@]78OC[C@@]9(CC[C@](C)(C=O)C[C@H]97)[C@H](O)C[C@@]8(C)[C@]6(C)CC[C@H]5C4(C)C)[C@H](O[C@@H]4O[C@H](CO)[C@@H](O)[C@H](O)[C@H]4O)[C@H]3O)O[C@H](CO)[C@@H](O)[C@@H]2O)[C@H](O)[C@H](O)[C@H]1O [ARDISIACRISPIN B] | 5.44 | 5.92 | 5.49
CC1(C)CC[C@]23CO[C@@]4(CC[C@@H]5[C@@]6(C)CC[C@H](O[C@@H]7OC[C@H](O[C@@H]8O[C@H](CO)[C@@H](O)[C@H](O)[C@H]8O[C@@H]8OC[C@@H](O)[C@H](O)[C@H]8O)[C@H](O)[C@H]7O)C(C)(C)[C@@H]6CC[C@@]5(C)[C@]4(C)C[C@H]2O)[C@@H]3C1 [ARDISIANOSIDE D] | 4.62 | 5.82 | 5.46
C[C@@H]1O[C@@H](O[C@H]2[C@H](O[C@H]3CO[C@@H](O[C@H]4CC[C@]5(C)[C@H]6CC[C@]78OC[C@@]9(CC[C@](C)(O)C[C@H]97)[C@H](O)C[C@@]8(C)[C@]6(C)CC[C@H]5C4(C)C)[C@H](O[C@@H]4O[C@H](CO)[C@@H](O)[C@H](O)[C@H]4O)[C@H]3O)O[C@H](CO)[C@@H](O)[C@@H]2O)[C@H](O)[C@H](O)[C@H]1O [ARDISIANOSIDE G] | < 4.00 | < 4.00 | < 4.00
C[C@@H]1O[C@@H](O[C@H]2[C@H](O[C@H]3CO[C@@H](O[C@H]4CC[C@]5(C)[C@H]6CC[C@]78OC[C@@]9(CC[C@](C)(CO)C[C@H]97)[C@H](O)C[C@@]8(C)[C@]6(C)CC[C@H]5C4(C)C)[C@H](O[C@@H]4O[C@H](CO)[C@@H](O)[C@H](O)[C@H]4O)[C@H]3O)O[C@H](CO)[C@@H](O)[C@@H]2O)[C@H](O)[C@H](O)[C@H]1O [ARDISICRENOSIDE A] | < 4.00 | 4.84 | < 4.00
C[C@@H]1O[C@@H](O[C@H]2[C@H](O[C@H]3CO[C@@H](O[C@H]4CC[C@]5(C)[C@H]6CC[C@]78OC(=O)[C@@]9(CC[C@](C)(CO)C[C@H]97)[C@H](O)C[C@@]8(C)[C@]6(C)CC[C@H]5C4(C)C)[C@H](O[C@@H]4O[C@H](CO)[C@@H](O)[C@H](O)[C@H]4O)[C@H]3O)O[C@H](CO)[C@@H](O)[C@@H]2O)[C@H](O)[C@H](O)[C@H]1O [ARDISIANOSIDE I] | < 4.00 | < 4.00 | < 4.00
C[C@@H]1O[C@@H](O[C@H]2[C@H](O[C@H]3CO[C@@H](O[C@H]4CC[C@]5(C)[C@H]6CC[C@]78OC[C@@]9(CCC(C)(C)C[C@H]97)[C@H](O)C[C@@]8(C)[C@]6(C)CC[C@H]5C4(C)C)[C@H](O[C@@H]4O[C@H](CO)[C@@H](O)[C@H](O)[C@H]4O)[C@H]3O)O[C@H](CO)[C@@H](O)[C@@H]2O)[C@H](O)[C@H](O)[C@H]1O | 5.43 | 6.40 | 5.72
C[C@@H]1O[C@@H](O[C@H]2[C@H](O[C@H]3CO[C@@H](O[C@H]4CC[C@]5(C)[C@H]6CC[C@]78OC[C@@]9(CC[C@](C)(C=O)C[C@H]97)[C@H](O)C[C@@]8(C)[C@]6(C)CC[C@H]5C4(C)C)[C@H](O)[C@H]3O)O[C@H](CO)[C@@H](O)[C@@H]2O)[C@H](O)[C@H](O)[C@H]1O [CYCLAMIRETIN A] | 4.53 | 5.77 | 4.74
C[C@@H]1O[C@@H](O[C@H]2[C@H](O[C@H]3CO[C@@H](O[C@H]4CC[C@]5(C)[C@H]6CC[C@]78OC(=O)[C@@]9(CC[C@](C)(C=O)C[C@H]97)[C@H](O)C[C@@]8(C)[C@]6(C)CC[C@H]5C4(C)C)[C@H](O[C@@H]4O[C@H](CO)[C@@H](O)[C@H](O)[C@H]4O)[C@H]3O)O[C@H](CO)[C@@H](O)[C@@H]2O)[C@H](O)[C@H](O)[C@H]1O [ARDISIANOSIDE J] | 4.48 | 4.47 | 4.34
C[C@@H]1O[C@@H](O[C@H]2[C@H](O[C@H]3CO[C@@H](O[C@H]4CC[C@]5(C)[C@H]6CC[C@]78OC[C@@]9(CC[C@](C)(C(=O)O)C[C@H]97)[C@H](O)C[C@@]8(C)[C@]6(C)CC[C@H]5C4(C)C)[C@H](O[C@@H]4O[C@H](CO)[C@@H](O)[C@H](O)[C@H]4O)[C@H]3O)O[C@H](CO)[C@@H](O)[C@@H]2O)[C@H](O)[C@H](O)[C@H]1O [ARDISIAMAMILLOSIDE F] | < 4.00 | < 4.00 | < 4.00
CC1(C)[C@@H](O[C@@H]2OC[C@H](O[C@@H]3O[C@H](CO)[C@@H](O)[C@H](O[C@@H]4O[C@H](CO)[C@@H](O)[C@H](O)[C@H]4O)[C@H]3O[C@@H]3OC[C@@H](O)[C@H](O)[C@H]3O)[C@H](O)[C@H]2O[C@@H]2O[C@H](CO)[C@@H](O)[C@H](O)[C@H]2O)CC[C@]2(C)[C@H]3CC[C@]45OC[C@@]6(CC[C@](C)(C=O)C[C@H]64)[C@H](O)C[C@@]5(C)[C@]3(C)CC[C@@H]12 [CYCLAMIN] | 5.48 | 6.52 | 5.52
CC1(C)[C@@H](O[C@@H]2OC[C@H](O[C@@H]3O[C@H](CO)[C@@H](O)[C@H](O)[C@H]3O)[C@H](O)[C@H]2O[C@@H]2O[C@H](CO)[C@@H](O)[C@H](O)[C@H]2O)CC[C@]2(C)[C@H]3CC[C@]45OC[C@@]6(CC[C@](C)(CO)C[C@H]64)[C@H](O)C[C@@]5(C)[C@]3(C)CC[C@@H]12 [ARDISIANOSIDE E] | 5.51 | 6.40 | 5.47
CC1(C)CC[C@]23C(=O)O[C@@]4(CC[C@@H]5[C@@]6(C)CC[C@H](O[C@@H]7OC[C@H](O[C@@H]8O[C@H](CO)[C@@H](O)[C@H](O[C@@H]9O[C@H](CO)[C@@H](O[C@@H]%10O[C@H](CO)[C@@H](O)[C@H](O)[C@H]%10O)[C@H](O[C@@H]%10O[C@H](CO)[C@@H](O)[C@H](O)[C@H]%10O)[C@H]9O)[C@H]8O[C@@H]8OC[C@@H](O)[C@H](O)[C@H]8O)[C@H](O)[C@H]7O[C@@H]7O[C@H](CO)[C@@H](O)[C@H](O)[C@H]7O)C(C)(C)[C@@H]6CC[C@@]5(C)[C@]4(C)C[C@H]2O)[C@@H]3C1 [ARDISIANOSIDE H] | 4.48 | 5.08 | 4.55
C[C@@H]1O[C@@H](O[C@H]2[C@H](O[C@H]3CO[C@@H](O[C@H]4CC[C@]5(C)[C@H]6CC[C@]78OC[C@@]9(CCC(C)(C)C[C@H]97)[C@H](O)C[C@@]8(C)[C@]6(C)CC[C@H]5C4(C)C)[C@H](O)[C@H]3O)O[C@H](CO)[C@@H](O)[C@@H]2O)[C@H](O)[C@H](O)[C@H]1O [ARDISIANOSIDE C] | 5.49 | 5.89 | 5.57
COc1cc([C@@H]2c3cc4c(cc3[C@@H](O[C@@H]3O[C@@H]5CO[C@@H](C)O[C@H]5[C@H](O)[C@H]3O)[C@H]3COC(=O)[C@H]23)OCO4)cc(OC)c1O [ETOPOSIDE] | 4.68 | 7.00 | 6.52
CC1(C)[C@@H](O[C@@H]2OC[C@H](O[C@@H]3O[C@H](CO)[C@@H](O)[C@H](O)[C@H]3O[C@@H]3OC[C@@H](O)[C@H](O)[C@H]3O)[C@H](O)[C@H]2O)CC[C@]2(C)[C@H]3CC[C@]45OC[C@@]6(CC[C@](C)(C=O)C[C@H]64)[C@H](O)C[C@@]5(C)[C@]3(C)CC[C@@H]12 [PRIMULANIN] | 4.56 | 5.48 | 4.61
C[C@@H]1O[C@@H](O[C@H]2[C@H](O[C@H]3CO[C@@H](O[C@H]4CC[C@]5(C)[C@H]6CC[C@]78OC[C@@]9(CC[C@](C)(C=O)C[C@H]97)C(=O)C[C@@]8(C)[C@]6(C)CC[C@H]5C4(C)C)[C@H](O)[C@H]3O)O[C@H](CO)[C@@H](O)[C@@H]2O)[C@H](O)[C@H](O)[C@H]1O [ARDISIAMAMILLOSIDE H] | 4.43 | 4.67 | 4.51
C[C@@H]1O[C@@H](O[C@H]2[C@H](O[C@H]3CO[C@@H](O[C@H]4CC[C@]5(C)[C@H]6CC=C7[C@@H]8C[C@@](C)(CO)CC[C@]8(CO)[C@@H]8O[C@@H]8[C@@]7(C)[C@]6(C)CC[C@H]5C4(C)C)[C@H](O[C@@H]4O[C@H](CO)[C@@H](O)[C@H](O)[C@H]4O)[C@H]3O)O[C@H](CO)[C@@H](O)[C@@H]2O)[C@H](O)[C@H](O)[C@H]1O [ARDISIANOSIDE K] | < 4.00 | < 4.00 | < 4.00
C[C@@H]1O[C@@H](O[C@H]2[C@H](O[C@H]3CO[C@@H](O[C@H]4CC[C@]5(C)[C@H]6CC=C7[C@@H]8C[C@@](C)(CO)CC[C@]8(CO)[C@H](O)C[C@@]7(C)[C@]6(C)CC[C@H]5C4(C)C)[C@H](O[C@@H]4O[C@H](CO)[C@@H](O)[C@H](O)[C@H]4O)[C@H]3O)O[C@H](CO)[C@@H](O)[C@@H]2O)[C@H](O)[C@H](O)[C@H]1O [ARDISIAMAMILLOSEDE C] | < 4.00 | < 4.00 | < 4.00
CC1(C)CC[C@]23CO[C@@]4(CC[C@@H]5[C@@]6(C)CC[C@H](O[C@@H]7OC[C@H](O[C@@H]8O[C@H](CO)[C@@H](O)[C@H](O[C@@H]9O[C@H](CO)[C@@H](O[C@@H]%10O[C@H](CO)[C@@H](O)[C@H](O)[C@H]%10O)[C@H](O[C@@H]%10O[C@H](CO)[C@@H](O)[C@H](O)[C@H]%10O)[C@H]9O)[C@H]8O[C@@H]8OC[C@@H](O)[C@H](O)[C@H]8O)[C@H](O)[C@H]7O[C@@H]7O[C@H](CO)[C@@H](O)[C@H](O)[C@H]7O)C(C)(C)[C@@H]6CC[C@@]5(C)[C@]4(C)C[C@H]2O)[C@@H]3C1 [ARDISIANOSIDES A] | 5.22 | 6.40 | 5.57
